Test results reported in publication PMC6572854, “Convergent allostery in ribonucleotide reductase” (Nature Communications, 2019).
Numbering of substitutions follows the chain as printed. Blank lines part the entries; values can stand above or below the molecule they belong to.

Tests used:
[1] = target: T1, NrdE (holo-NrdE; class Ib RNR alpha subunit) (Bacillus subtilis, UniProt P50620); test: cryo-EM structure ([…] Å) and SAXS titration; type: binding; settings: allosteric; S-site and I-site; 100 µM dATP, 1 mM CDP, 15 mM MgCl2, pH 7.6; dATP displaces co-purified dAMP at I-site
T1 construct: tagless full-length (C-terminal residue V700), His6-SUMO tag cleaved, E. coli BL21(DE3); holo form co-purifies with dAMP; monomer, I-dimer, S-dimer or filament depending on nucleotides
T1 sequence (P50620 whole entry): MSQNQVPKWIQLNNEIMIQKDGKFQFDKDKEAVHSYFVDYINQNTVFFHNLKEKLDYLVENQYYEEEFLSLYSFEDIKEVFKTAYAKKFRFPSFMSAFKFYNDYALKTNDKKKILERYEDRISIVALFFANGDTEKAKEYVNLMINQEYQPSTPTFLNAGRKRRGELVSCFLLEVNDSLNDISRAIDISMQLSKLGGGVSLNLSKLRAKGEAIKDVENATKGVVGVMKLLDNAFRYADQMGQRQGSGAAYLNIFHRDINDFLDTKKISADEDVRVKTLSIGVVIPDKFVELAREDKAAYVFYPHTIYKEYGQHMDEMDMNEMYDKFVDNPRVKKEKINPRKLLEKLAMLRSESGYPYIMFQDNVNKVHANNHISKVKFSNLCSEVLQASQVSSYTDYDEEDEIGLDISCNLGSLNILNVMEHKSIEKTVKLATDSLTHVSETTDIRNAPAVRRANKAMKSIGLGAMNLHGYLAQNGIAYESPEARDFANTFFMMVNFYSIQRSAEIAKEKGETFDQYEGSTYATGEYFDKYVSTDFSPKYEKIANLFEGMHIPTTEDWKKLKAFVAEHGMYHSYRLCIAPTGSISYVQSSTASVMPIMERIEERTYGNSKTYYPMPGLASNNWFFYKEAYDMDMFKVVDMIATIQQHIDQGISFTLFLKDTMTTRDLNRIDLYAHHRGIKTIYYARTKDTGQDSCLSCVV

[2] = target: T2, NrdEF (holo-NrdE + Mn-reconstituted NrdF) (Bacillus subtilis, UniProt P50620); test: cryo-EM structure ([…] Å); type: binding; settings: allosteric; S-site and I-site of NrdE in NrdEF filament; 100 µM dATP, 1 mM CDP, 15 mM MgCl2, pH 7.6
T2 construct: tagless NrdE (SUMO tag cleaved) plus His6-tagged NrdF, E. coli host; alpha2beta2 asymmetric unit of filament; both nucleotide sites lie on NrdE; NrdF modelled only as C-terminal polyalanine peptide; with Ribonucleoside-diphosphate reductase subunit beta NrdF
T2 sequence (P50620 whole entry, one chain of several): as the sequence (P50620 whole entry) above

[3] = target: T1, NrdE (holo-NrdE; class Ib RNR alpha subunit); test: crystal structure ([…] Å); type: binding; settings: allosteric; I-site, displacing dAMP; presumed hydrolysis product of added ATP; with TTP and GDP or CDP
[4] = target: T1, NrdE (holo-NrdE; class Ib RNR alpha subunit); test: crystal structure ([…] Å) and SAXS titration; type: binding; settings: allosteric; M-site; 5 mM Mg-ATP with TTP and GDP; may have displaced GDP
[5] = target: T3, Bacillus subtilis NrdE C382S, tagless (Bacillus subtilis, UniProt P50620 1-700, C382S); test: SAXS titration; 0-20 µM Fe-NrdF titrated to 4 µM C382S holo-NrdE, 50 µM dATP, 1 mM CDP, assay buffer with 5% glycerol, 4 °C; singular value decomposition; settings: both partners purified
T3 construct: NrdE, α subunit of the class Ib ribonucleotide reductase of Bacillus subtilis, with the catalytic cysteine C382 changed to serine; Used in all SAXS experiments where NrdF was added, to prevent changes in nucleotide concentrations (D1:p2); also called C382S holo-NrdE; C382S NrdE
T3 sequence: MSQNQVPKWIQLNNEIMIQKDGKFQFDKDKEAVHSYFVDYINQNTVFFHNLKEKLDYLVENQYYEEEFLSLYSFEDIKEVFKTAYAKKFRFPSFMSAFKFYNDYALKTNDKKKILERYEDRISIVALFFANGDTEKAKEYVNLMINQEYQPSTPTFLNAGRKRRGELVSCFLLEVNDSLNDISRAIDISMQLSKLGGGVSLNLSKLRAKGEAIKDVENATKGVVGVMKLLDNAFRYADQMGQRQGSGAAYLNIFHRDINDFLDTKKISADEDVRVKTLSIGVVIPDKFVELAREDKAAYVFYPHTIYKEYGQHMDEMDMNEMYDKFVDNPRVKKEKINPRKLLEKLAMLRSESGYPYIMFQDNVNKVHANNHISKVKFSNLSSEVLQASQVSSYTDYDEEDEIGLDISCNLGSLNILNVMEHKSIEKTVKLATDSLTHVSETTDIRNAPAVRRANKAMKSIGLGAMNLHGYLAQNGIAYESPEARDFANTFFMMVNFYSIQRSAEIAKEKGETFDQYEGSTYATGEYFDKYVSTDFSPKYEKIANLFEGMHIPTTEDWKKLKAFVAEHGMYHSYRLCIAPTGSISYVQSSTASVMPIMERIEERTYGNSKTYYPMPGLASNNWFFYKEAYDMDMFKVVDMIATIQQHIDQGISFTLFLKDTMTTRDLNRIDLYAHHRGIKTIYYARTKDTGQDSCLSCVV

[6] = target: T4, Bacillus subtilis class Ib ribonucleotide reductase alpha subunit NrdE, wild type, tagless (Bacillus subtilis, UniProt P50620 1-700); test: cryo-EM structure; 20 µM holo-NrdE with 20 or 40 µM Mn-reconstituted NrdF, 100 µM dATP, 1 mM CDP, diluted four-fold; NrdEF filament, 4.7 Å map; settings: both partners purified
T4 construct: NrdE, alpha subunit of the class Ib ribonucleotide reductase of Bacillus subtilis; tagless after SUMO protease; also called apo-NrdE (dAMP-free)
T4 sequence: T3 sequence with S382C

[7] = target: the molecule itself; test: SEC-SAXS; stoichiometric mixture of C382S holo-NrdE and NrdF with 1 mM ATP and 250 µM TTP, 4 °C
[8] = target: the molecule itself; test: SEC-SAXS; 80 µM wt holo-NrdE loaded, 250 µM TTP, 1 mM ATP, assay buffer with 1% glycerol, 4 °C; fit of the dataset to I-dimer, S-dimer and monomer in OLIGOMER

cryo-EM structure (4.7 Å) [2]: a dATP molecule at each S- and I-site
Molecule: Nc1ncnc2c1ncn2[C@H]1C[C@H](O)[C@@H](COP(=O)(O)OP(=O)(O)OP(=O)(O)O)O1 [dATP]
cryo-EM structure (6 Å) and SAXS titration [1]: For both filaments, excess density at the S-site was modeled as dATP

Molecule: Nc1ncnc2c1ncn2[C@@H]1O[C@H](COP(=O)(O)OP(=O)(O)O)[C@@H](O)[C@H]1O [ADP]
crystal structure (2.50, 2.55, 2.95 Å) [3]: Electron density at the I-site showed strong evidence for an ADP ligand displacing dAMP

Molecule: Nc1ncnc2c1ncn2[C@@H]1O[C@H](COP(=O)(O)OP(=O)(O)OP(=O)(O)O)[C@@H](O)[C@H]1O [ATP]
crystal structure (2.50, 2.55 Å) and SAXS titration [4]: we also observed nearby electron density for an ATP ligand with the adenine ring positioned

stoichiometry N [5]: ~1 NrdF per NrdE (subunits)
B1: Bacillus subtilis class Ib ribonucleotide reductase NrdF (β subunit), His6-tagged, metal-reconstituted (enzyme)
chain: MTKIYDAANWSKHEDDFTQMFYNQNVKQFWLPEEIALNGDLLTWKYLGKNEQDTYMKVLAGLTLLDTEQGNTGMPIVAEHVDGHQRKAVLNFMAMMENAVHAKSYSNIFMTLAPTETINEVFEWVKQNKYLQKKAQMIVGLYKAIQKDDEISLFKAMVASVYLESFLFYSGFYYPLYFYGQGKLMQSGEIINLILRDEAIHGVYVGLLAQEIYNKQTEEKKAELREFAIDLLNQLYENELEYTEDLYDQVGLSHDVKKFIRYNANKALMNLGFDPYFEEEDINPIVLNGLNTKTKSHDFFSMKGNGYKKATVEPLKDDDFYFEDEKEQI
notes: NrdF, β subunit of the class Ib ribonucleotide reductase of Bacillus subtilis; Fe-NrdF was used in the subunit titration, Mn-NrdF in SEC-SAXS and cryo-EM; also called Fe-NrdF; Mn-NrdF; source: produced in a similar manner as NrdE but without the tag cleavage steps, purified; reconstituted with Fe(III)2-Y• or Mn(III)2-Y•, MonoQ

binding result [6]: binds
B2: Bacillus subtilis class Ib ribonucleotide reductase beta subunit NrdF, His6-tagged, metal-reconstituted (enzyme)
chain: B1 chain
notes: NrdF, beta subunit of the class Ib ribonucleotide reductase of Bacillus subtilis; Fe-NrdF in the SAXS subunit titration, Mn-reconstituted NrdF in cryo-EM; also called Fe-NrdF
binding result [7]: binds

B3: Bacillus subtilis class Ib ribonucleotide reductase NrdE (α subunit), wild type, tagless (enzyme)
chain: T3 sequence with S382C
notes: NrdE, α subunit of the class Ib ribonucleotide reductase of Bacillus subtilis; holo-NrdE carries the co-purified dAMP ligand, apo-NrdE is nucleotide-free; same polypeptide; also called wt apo-NrdE (dAMP-free)
stoichiometry N [8]: 2
